Assays:
X-ALD cell lines [1] = test: De novo D3-C26:0 synthesis from D3-C22:0 in intact X-ALD cells; type: cell-based, human; settings: 10 day treatment, 5 X-ALD cell lines
Experimental: The effect of treatment on D3-C26:0 synthesis in intact cells. The effect of certain compounds of the invention on the synthesis of D3-C26:0 from D3-C22:0 was measured in cultured skin fibroblasts from controls and X-ALD patients. Cells were seeded at approximately 40% confluency in T75 flasks in DMEM. The next day, medium was replaced with medium containing 30 μM D3-C22:0 and the assayed compounds at their final concentration. […] Each 72 h, the tissue culture medium and compounds was refreshed. At the end of the experiment cells were harvested and VLCFA analyzed as described (Valianpour et al., Molecular Genetics and Metabolism, 79: 189-196 (2003)).
(§1) VLCFA measurement. VLCFA were analyzed by electrospray ionization mass spectrometry (ESI-MS) as described (Valianpour et al., Molecular Genetics and Metabolism, 79: 189-196 (2003)).
(§2) 5 different X-ALD cell lines were incubated for 6 days with compounds 1, 2, 3, and 4 at 10 μM, 5 mM 4PBA (sodium 4-phenylbutyrate), or 0.1 μM sobetirome. On Day 6, 30 μM D3C22:0 was added to assess the effect of treatment on beta-oxidation and de novo D3C26:0 synthesis. 6 untreated control cells as well as 5 different untreated X-ALD cells were included to allow assessment of the treatment effect. The total set consisted of 41 experiments

X-ALD cell lines [2] = test: D3-C22:0 (VLCFA) beta-oxidation in intact X-ALD cells; type: cell-based, human; settings: 0.1 μM; 10 day treatment; 5 X-ALD cell lines
Experimental: The effect of treatment on D3-C22:0 beta-oxidation in intact cells. Peroxisomal beta-oxidation activity was measured essentially as described by incubating cells with 30 μM deuterium-labeled C22:0 (D3-C22:0) (Kemp et al., Clinical Chemistry 50: 1824-1826 (2004)). Cells were seeded at approximately 40% confluency in T75 flasks in DMEM. The next day, medium was replaced with medium containing 30 μM D3-C22:0 and assayed compounds at their final concentration. […] Each 72 h, the tissue culture medium and compounds was refreshed. At the end of the experiment cells were harvested and VLCFA analyzed as described (Valianpour et al., Molecular Genetics and Metabolism, 79: 189-196 (2003)).
as §1, §2

[3] = test system: X-ALD fibroblast cell lines; test: Cell health (proliferation, morphology, death) of treated X-ALD fibroblasts; type: cell-based, human; settings: for cell survival of X-ALD cell lines: 100 μM, two X-ALD cell lines; for proliferation and morphology of cells: after 72 hours
Experimental: Human primary fibroblasts. Human skin fibroblasts were obtained from X-ALD patients through the Neurology Outpatient Clinic of the Academic Medical Center. Written informed consent was received from each patient. X-ALD diagnosis was confirmed by VLCFA and ABCD1 mutation analysis. Control fibroblasts were obtained from male anonymous volunteers with written informed consent. Fibroblasts were cultured in Dulbecco's modified Eagle's medium (DMEM) with L-glutamine and 4.5 g/L glucose, supplemented with 10% fetal calf serum, 2.5 mM HEPES, 100 U/ml penicillin and 100 U/ml streptomycin. Cells were cultured at 37° C. in a humidified 5% CO2 atmosphere. All fibroblast cell lines used were tested routinely for mycoplasma. All tests were negative.
Preparation of stock solutions. 10 mM stock solutions in DMSO were prepared by weighing the amount of compound (1 and 3 and their respective active metabolites, 2 and 4) as indicated in Table 2. Stock solutions were stored at room temperature in the dark. For each incubation, the amount of tissue culture medium needed was calculated and a stock solution of tissue culture medium with the final concentration of the to-be-tested compound was prepared. Tissue culture medium was removed from the cells, cells were washed once with PBS and the tissue culture medium with the compounds was added. If an experiment lasted longer than three days, the tissue culture medium and compounds were refreshed (using a fresh preparation) after three days until the end of the experiment.
Two different X-ALD fibroblast cell lines were incubated in duplicate with four compounds at three dosages as highlighted in Table 3.
4 X-ALD cell lines were incubated with 10 μM of 4 compounds 1, 2, 3, and 4. The effect of treatment on ABCD2 expression was analyzed at day 3 and day 10. For the 10 day incubation, tissue culture medium and compounds were refreshed at day 3 and day 6.

ABCD1−/− mice [4] = test: Whole blood VLCFA-LPC levels in an in vivo model of X-ALD; design: species or system mouse; settings: for C26:0-LPC Difference in Mean Change from Baseline / C26:0-LPC % Difference versus Vehicle: initial cohort, whole blood; for Least Squares Mean Change from Baseline Whole Blood C26:0-LPC Levels: second cohort, daily IP
Experimental: (§3) Animals. Male ABCD1−/− mice were developed using the Taconic 129SvEv background strain. Animals were housed 3-4/cage under a 12-hour lighting cycle (7 AM-7 PM light) and controlled temperature (22° C.) in the rodent facility. They were fed standard mouse chow and had access to drinking water ad libitum. Mice were between 2 and 3 months of age at the beginning of each study.
(§4) Study Protocol. Mice were injected once daily intraperitoneal with either drug or vehicle. For blood collection, ˜50 μL of blood was obtained by facial vein puncture using a sterile lancet. Blood was collected in a 1.5 ml microcentrifuge tube containing dried dipotassium EDTA and mixed by gentle inversion at least ten times before storing at −20° C. Blood was obtained in this manner following two, four, and six weeks of treatment. Following blood collection at six weeks, animals were sacrificed by cervical dislocation. Additional blood for preparation of plasma was obtained via cardiac puncture, and blood placed in Microtainer tubes. Brain, spinal cord, adrenal glands, testis, and liver were excised and snap frozen in liquid nitrogen for future analyses.
An initial cohort of 16 mice were randomized 3:1 to receive compound 3 or placebo, once daily for six weeks. […] Treated animals continued to experience progressive declines in C26:0-LPC through six weeks.
(§5) Based on the encouraging results of the initial cohort, a second, larger, cohort was evaluated. A total of 20 mice were randomized 1:1 to receive daily compound 3 or vehicle, by IP administration, for six weeks.

ABCD1−/− mice [5] = test: Plasma VLCFA-LPC levels in an in vivo model of X-ALD (second cohort); design: species or system mouse
Experimental: as §3, §4, §5
During the second cohort study, blood was obtained as described in the Methods section. At the six week time point sufficient blood was collected to permit plasma VLCFA analyses at weeks two, four and six. Plasma is considered by many to be a more reliable measurement of VLCFA levels, because of reduced analytical interference from other analytes, as well as reduced variability of the measurements.

SMILES: O=C([O-])CCCc1ccccc1.[Na+] [Compound 4PBA, sodium 4-phenylbutyrate]
- VLCFA synthesis (X-ALD cell lines [1]; 5 mM): near normal levels

SMILES: Cc1cc(OCC(=O)O)cc(C)c1Cc1ccc(O)c(C(C)C)c1 [sobetirome]
- effect on VLCFA beta-oxidation (X-ALD cell lines [2]): did not show any beneficial effect
- effect on VLCFA de novo synthesis (X-ALD cell lines [1]; 0.1 μM): did not show any beneficial effect

SMILES: Cc1cc(OC[P@@]2(=O)OCC[C@@H](c3cccc(Cl)c3)O2)cc(C)c1Cc1ccc(O)c(C(C)C)c1 [Compound 1]
- cell survival of X-ALD cell lines [3]: dead within 24 hours
- proliferation and morphology of cells ([3]; 0.1 or 10 μM): looked healthy

SMILES: Cc1cc(OCP(=O)(O)O)cc(C)c1Cc1ccc(O)c(C(C)C)c1 [Compound 2]
- proliferation and morphology of cells ([3]; 0.1, 1 or 10 μM): looked healthy

SMILES: Cc1cc(OCP(=O)(O)O)cc(C)c1Cc1ccc(O)c(Cc2ccccc2)c1 [Compound 4]
- proliferation and morphology of cells ([3]; 0.1, 1 or 10 μM): looked healthy

SMILES: Cc1cc(OCP(=O)(OCOC(=O)C(C)(C)C)OCOC(=O)C(C)(C)C)cc(C)c1Cc1ccc(O)c(Cc2ccccc2)c1 [Compound 3]
- cell survival of X-ALD cell lines [3]: dead within 24 hours
- proliferation and morphology of cells ([3]; 0.1 or 10 μM): looked healthy
- C20:0-, C22:0-, and C24:0-LPC levels (ABCD1−/− mice [4]; after six weeks of treatment): significant reductions
- C26:0-LPC Difference in Mean Change from Baseline (ABCD1−/− mice [4]; week 2): -0.052 µM
- C26:0-LPC % Difference versus Vehicle (ABCD1−/− mice [4]; week 2, p NS): 0%
- C26:0-LPC Difference in Mean Change from Baseline (ABCD1−/− mice [4]; week 4): -0.081 µM
- C26:0-LPC % Difference versus Vehicle (ABCD1−/− mice [4]; week 4, p NS): −11%
- C26:0-LPC % Difference versus Vehicle (ABCD1−/− mice [4]; week 6, p<0.0001): −40%
- Least Squares Mean Change from Baseline Whole Blood C26:0-LPC Levels (ABCD1−/− mice [4]; week 2, p NS versus vehicle): -0.021 µM
- Least Squares Mean Change from Baseline Whole Blood C26:0-LPC Levels (ABCD1−/− mice [4]; week 4, p<0.01 versus vehicle): -0.096 µM
- Least Squares Mean Change from Baseline Whole Blood C26:0-LPC Levels (ABCD1−/− mice [4]; week 6, p<0.005 versus vehicle): -0.12 µM
- Plasma C20:0-LPC % Difference vs. Vehicle (ABCD1−/− mice [5]; week 6, p<0.0001): −54%
- Plasma C22:0-LPC % Difference vs. Vehicle (ABCD1−/− mice [5]; week 6, p<0.0001): −43%
- Plasma C26:0-LPC % Difference vs. Vehicle (ABCD1−/− mice [5]; week 6, p<0.0001): −29%
- Plasma C24:0-LPC % Difference vs. Vehicle (ABCD1−/− mice [5]; week 6, p<0.005): −21%

Source: patent publication US12440502B2, “Use of thyroid beta-agonists” (priority 2016, dated 2025)
